Results as given in patent publication US12503438B2, “Compounds for the treatment of kinase-dependent disorders” (Exelixis, Inc., priority 2019, dated 2025).

Target: Met (Homo sapiens, UniProt P08581)
Assay: Met autophosphorylation ELISA in PC-3 cells
Type: cell-based
Set-up: endogenous in cells; host or cells: PC-3 prostate cancer cells (ATCC #CRL-1435)
Details: cellular activity, HGF-stimulated, phospho-Met ELISA, read-out: c-Met IC50
Experimental: PC-3 prostate cancer cells (ATCC #CRL-1435) were seeded at 4×10^4 cells/well onto 24-well plates (Greiner #662165), in DMEM (Thermo Fisher #11995-040) containing 10% FBS (Thermo Fisher #26140-079), 1% MEM NEAA (Thermo Fisher #11140-050), 1% GlutaMax (Thermo Fisher #35050-061), and 1% Penicillin Streptomycin (Thermo Fisher #15140-122). PC-3 cells were incubated at 37° C., 5% CO2 for 24 h and then starved for 3 h in serum-free medium. Test compounds were serially diluted to produce an 8-point dose curve in fresh serum-free medium to a final concentration of 0.3% DMSO (vehicle) and added to the cells and incubated for 1 h. Cells were then stimulated with 100 ng/mL recombinant human HGF (R&D Systems #294-HG-250) for 10 min, washed with cold PBS and immediately lysed with 130 μL of cold 1× lysis buffer [20 mM Tris, 137 mM sodium chloride, 2 mM EDTA, 10% glycerol, 1% NP-40 alternative, 1 mM activated sodium orthovanadate, 1 mM PefaBloc SC (Sigma-Aldrich #11429868001), protease/phosphatase inhibitor tablet (Thermo Fisher #A32959)]. Lysates were clarified by centrifugation and 100 μL/well added into the PathScan phospho-Met (panTyr) Sandwich ELISA (Cell Signaling Technology #7333). Assay was performed according to manufacturer's instructions. Positive control wells (100% activity) contained HGF-stimulated, DMSO-treated cell lysates. Negative control wells (0% activity) contained HGF-stimulated, reference inhibitor-treated cell lysates. IC50 values were calculated by nonlinear regression analysis using a 4-parameter logistic curve fit in ActivityBase XE (IDBS).

Met, sequence (P08581 25-1390): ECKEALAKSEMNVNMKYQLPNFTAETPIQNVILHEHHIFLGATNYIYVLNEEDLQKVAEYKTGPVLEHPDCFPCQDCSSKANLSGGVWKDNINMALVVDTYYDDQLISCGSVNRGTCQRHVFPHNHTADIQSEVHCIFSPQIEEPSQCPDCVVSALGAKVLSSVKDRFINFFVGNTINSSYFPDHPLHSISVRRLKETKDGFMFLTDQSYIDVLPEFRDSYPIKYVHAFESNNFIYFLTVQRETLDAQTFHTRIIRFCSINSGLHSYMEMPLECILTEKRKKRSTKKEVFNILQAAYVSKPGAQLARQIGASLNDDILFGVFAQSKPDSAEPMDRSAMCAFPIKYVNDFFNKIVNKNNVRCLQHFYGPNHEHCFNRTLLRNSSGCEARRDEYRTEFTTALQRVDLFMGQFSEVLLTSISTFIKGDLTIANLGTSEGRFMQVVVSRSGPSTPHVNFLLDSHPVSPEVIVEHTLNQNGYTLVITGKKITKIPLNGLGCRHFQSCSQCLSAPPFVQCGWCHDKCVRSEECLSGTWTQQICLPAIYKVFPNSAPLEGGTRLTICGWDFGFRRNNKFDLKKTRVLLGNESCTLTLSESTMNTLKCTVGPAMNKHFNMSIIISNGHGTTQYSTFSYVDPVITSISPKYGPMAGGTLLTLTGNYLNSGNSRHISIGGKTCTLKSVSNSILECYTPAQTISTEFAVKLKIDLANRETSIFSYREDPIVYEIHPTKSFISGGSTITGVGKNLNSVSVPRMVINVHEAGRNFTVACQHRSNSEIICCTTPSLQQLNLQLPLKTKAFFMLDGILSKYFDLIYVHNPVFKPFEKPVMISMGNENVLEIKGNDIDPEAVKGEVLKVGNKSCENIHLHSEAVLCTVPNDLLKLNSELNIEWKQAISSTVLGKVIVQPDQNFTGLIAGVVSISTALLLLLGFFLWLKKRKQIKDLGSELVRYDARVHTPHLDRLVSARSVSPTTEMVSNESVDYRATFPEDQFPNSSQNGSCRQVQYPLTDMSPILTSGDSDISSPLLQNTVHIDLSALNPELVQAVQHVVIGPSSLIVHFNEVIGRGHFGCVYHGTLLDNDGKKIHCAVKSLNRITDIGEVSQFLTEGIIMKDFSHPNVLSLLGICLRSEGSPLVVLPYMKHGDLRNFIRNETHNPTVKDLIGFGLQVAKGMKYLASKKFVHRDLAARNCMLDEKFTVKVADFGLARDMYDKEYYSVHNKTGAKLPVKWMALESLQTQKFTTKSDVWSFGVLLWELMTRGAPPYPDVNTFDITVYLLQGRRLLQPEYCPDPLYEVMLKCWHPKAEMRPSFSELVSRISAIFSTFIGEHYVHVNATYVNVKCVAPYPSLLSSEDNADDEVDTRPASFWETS

Compound | IC50 [nM]
CC(C)n1cc(-c2ccc3c(Oc4ccc(NC(=O)C5(C(=O)Nc6ccc(F)cc6)CC5)cc4)ccnc3c2)cn1 [Compound 21, 1-N′-(4-Fluorophenyl)-1-N-[4-[7-(1-propan-2-ylpyrazol-4-yl)quinolin-4-yl]oxyphenyl]cyclopropane-1,1-dicarboxamide] | 10 to 100
O=C(Nc1ccc(F)cc1)C1(C(=O)Nc2ccc(Oc3ccnc4cc(-c5cnn6c5CCC6)ccc34)cc2)CC1 [Compound 29, 1-N-[4-[7-(5,6-Dihydro-4H-pyrrolo[1,2-b]pyrazol-3-yl)quinolin-4-yl]oxyphenyl]-1-N′-(4-fluorophenyl)cyclopropane-1,1-dicarboxamide] | 10 to 100
Cc1cc(-c2ccc3c(Oc4ccc(NC(=O)C5(C(=O)Nc6ccc(F)cc6)CC5)cc4)ccnc3c2)ccn1 [Compound 30, 1-N′-(4-Fluorophenyl)-1-N-[4-[7-(2-methylpyridin-4-yl)quinolin-4-yl]oxyphenyl]cyclopropane-1,1-dicarboxamide] | 10 to 100
COc1cc(-c2ccc3c(Oc4ccc(NC(=O)C5(C(=O)Nc6ccc(F)cc6)CC5)cc4)ccnc3c2)ccn1 [Compound 31, 1-N′-(4-Fluorophenyl)-1-N-[4-[7-(2-methoxypyridin-4-yl)quinolin-4-yl]oxyphenyl]cyclopropane-1,1-dicarboxamide] | 10 to 100
O=C(Nc1ccc(F)cc1)C1(C(=O)Nc2ccc(Oc3ccnc4cc(-c5ccnc(F)c5)ccc34)cc2)CC1 [Compound 33, 1-N′-(4-Fluorophenyl)-1-N-[4-[7-(2-fluoropyridin-4-yl)quinolin-4-yl]oxyphenyl]cyclopropane-1,1-dicarboxamide] | 10 to 100
N#Cc1cc(-c2ccc3c(Oc4ccc(NC(=O)C5(C(=O)Nc6ccc(F)cc6)CC5)cc4)ccnc3c2)ccn1 [Compound 34, 1-N-[4-[7-(2-Cyanopyridin-4-yl)quinolin-4-yl]oxyphenyl]-1-N′-(4-fluorophenyl)cyclopropane-1,1-dicarboxamide] | 10 to 100
Nc1ccc(-c2ccc3c(Oc4ccc(NC(=O)C5(C(=O)Nc6ccc(F)cc6)CC5)cc4)ccnc3c2)cn1 [Compound 38, 1-N-[4-[7-(6-Aminopyridin-3-yl)quinolin-4-yl]oxyphenyl]-1-N′-(4-fluorophenyl)cyclopropane-1,1-dicarboxamide] | 10 to 100
O=C(Nc1ccc(F)cc1)C1(C(=O)Nc2ccc(Oc3ccnc4cc(-c5cnc6[nH]ncc6c5)ccc34)cc2)CC1 [Compound 39, 1-N′-(4-Fluorophenyl)-1-N-[4-[7-(1H-pyrazolo[3,4-b]pyridin-5-yl)quinolin-4-yl]oxyphenyl]cyclopropane-1,1-dicarboxamide] | 10 to 100
N#Cc1cncc(-c2ccc3c(Oc4ccc(NC(=O)C5(C(=O)Nc6ccc(F)cc6)CC5)cc4)ccnc3c2)c1 [Compound 40, 1-N-[4-[7-(5-Cyanopyridin-3-yl)quinolin-4-yl]oxyphenyl]-1-N′-(4-fluorophenyl)cyclopropane-1,1-dicarboxamide] | 10 to 100
O=C(Nc1ccc(F)cc1)C1(C(=O)Nc2ccc(Oc3ccnc4cc(-c5ccc(F)nc5)ccc34)cc2)CC1 [Compound 41, 1-N′-(4-Fluorophenyl)-1-N-[4-[7-(6-fluoropyridin-3-yl)quinolin-4-yl]oxyphenyl]cyclopropane-1,1-dicarboxamide] | 10 to 100
N#Cc1ccc(-c2ccc3c(Oc4ccc(NC(=O)C5(C(=O)Nc6ccc(F)cc6)CC5)cc4)ccnc3c2)cn1 [Compound 42, 1-N-[4-[7-(6-Cyanopyridin-3-yl)quinolin-4-yl]oxyphenyl]-1-N′-(4-fluorophenyl)cyclopropane-1,1-dicarboxamide] | 10 to 100
O=C(Nc1ccc(F)cc1)C1(C(=O)Nc2ccc(Oc3ccnc4cc(-c5cncc(F)c5)ccc34)cc2)CC1 [Compound 45, 1-N′-(4-Fluorophenyl)-1-N-[4-[7-(5-fluoropyridin-3-yl)quinolin-4-yl]oxyphenyl]cyclopropane-1,1-dicarboxamide] | 100 to 300
Cc1cncc(-c2ccc3c(Oc4ccc(NC(=O)C5(C(=O)Nc6ccc(F)cc6)CC5)cc4)ccnc3c2)c1 [Compound 46, 1-N′-(4-Fluorophenyl)-1-N-[4-[7-(5-methylpyridin-3-yl)quinolin-4-yl]oxyphenyl]cyclopropane-1,1-dicarboxamide] | 100 to 300
COc1cncc(-c2ccc3c(Oc4ccc(NC(=O)C5(C(=O)Nc6ccc(F)cc6)CC5)cc4)ccnc3c2)c1 [Compound 47, 1-N′-(4-Fluorophenyl)-1-N-[4-[7-(5-methoxypyridin-3-yl)quinolin-4-yl]oxyphenyl]cyclopropane-1,1-dicarboxamide] | 100 to 300
CC(C)Oc1ccc(-c2ccc3c(Oc4ccc(NC(=O)C5(C(=O)Nc6ccc(F)cc6)CC5)cc4)ccnc3c2)cn1 [Compound 50, 1-N′-(4-Fluorophenyl)-1-N-[4-[7-(6-propan-2-yloxypyridin-3-yl)quinolin-4-yl]oxyphenyl]cyclopropane-1,1-dicarboxamide] | 100 to 300
O=C(Nc1ccc(F)cc1)C1(C(=O)Nc2ccc(Oc3ccnc4cc(-c5ccc(O)nc5)ccc34)cc2)CC1 [Compound 51, 1-N′-(4-Fluorophenyl)-1-N-[4-[7-(6-hydroxypyridin-3-yl)quinolin-4-yl]oxyphenyl]cyclopropane-1,1-dicarboxamide] | ≤ 10
O=C(Nc1ccc(F)cc1)C1(C(=O)Nc2ccc(Oc3ccnc4cc(-c5cccnc5O)ccc34)cc2)CC1 [Compound 52, 1-N′-(4-Fluorophenyl)-1-N-[4-[7-(2-hydroxypyridin-3-yl)quinolin-4-yl]oxyphenyl]cyclopropane-1,1-dicarboxamide] | 10 to 100
O=C(Nc1ccc(F)cc1)C1(C(=O)Nc2ccc(Oc3ccnc4cc(-c5ccc[n+]([O-])c5)ccc34)cc2)CC1 [Compound 109, 1-N′-(4-Fluorophenyl)-1-N-[4-[7-(1-oxidopyridin-1-ium-3-yl)quinolin-4-yl]oxyphenyl]cyclopropane-1,1-dicarboxamide] | 10 to 100
Cc1cc2c(Oc3c(F)cc(NC(=O)C4(C(=O)Nc5ccc(F)cc5)CC4)c(F)c3F)ccnc2cc1-c1cnn(C)c1 [Compound 110, 1-N-(4-Fluorophenyl)-1-N′-[2,3,5-trifluoro-4-[6-methyl-7-(1-methylpyrazol-4-yl)quinolin-4-yl]oxyphenyl]cyclopropane-1,1-dicarboxamide] | 10 to 100
CN1CCN(c2cc(-c3ccc4c(Oc5ccc(NC(=O)C6(C(=O)Nc7ccc(F)cc7)CC6)cc5)ccnc4c3)ccn2)CC1 [Compound 111, 1-N′-(4-Fluorophenyl)-1-N-[4-[7-[2-(4-methylpiperazin-1-yl)pyridin-4-yl]quinolin-4-yl]oxyphenyl]cyclopropane-1,1-dicarboxamide] | 100 to 300
Cc1cc2c(Oc3cc(Cl)c(NC(=O)C4(C(=O)Nc5ccc(F)cc5)CC4)cc3F)ccnc2cc1-c1cnn(C)c1 [Compound 112, 1-N′-[2-Chloro-5-fluoro-4-[6-methyl-7-(1-methylpyrazol-4-yl)quinolin-4-yl]oxyphenyl]-1-N-(4-fluorophenyl)cyclopropane-1,1-dicarboxamide] | 10 to 100
O=C(Nc1ccc(F)cc1)C1(C(=O)Nc2ccc(Oc3ccnc4cc(-c5cccnc5)ccc34)c(F)c2)CC1 [Compound 113, 1-N-(4-Fluorophenyl)-1-N′-[3-fluoro-4-(7-pyridin-3-ylquinolin-4-yl)oxyphenyl]cyclopropane-1,1-dicarboxamide] | 10 to 100
